Source: patent US7728146B2, “Enzyme inhibitors” (Probiodrug AG, priority 2006, dated 2010)
Counter-ions that a name gives are not always drawn.

Key:
[1] = biological target: T1, DP IV (Homo sapiens, UniProt P27487); assay: DP IV inhibition IC50, parallel-synthesis compounds tested directly following synthesis (without purification); format: biochemical; set-up: IC50 DP4; other: tested directly following parallel synthesis, without purification; compounds of formula (Ib) from parallel synthesis, tested directly following synthesis; conditions: DP IV inhibition; compounds of formula (Ib) from parallel synthesis, tested directly following synthesis (without purification); read-out: IC50
In short: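 IC50 came from a 4-parameter fit of residual activity (linear 405 nm slopes for pNA release over ~18 min, relative to solvent-only wells). Gly-Pro-pNA was the substrate, cleaved by porcine kidney or recombinant human DP IV at room temperature in HEPES with 5% DMSO; duplicate 1:2 series started at 100 μM final.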

[2] = biological target: dipeptidyl peptidase (DP IV) (UniProt P27487); assay: Determination of IC50 against DP IV (hydrolysis of Gly-Pro-pNA); format: biochemical, porcine kidney or recombinant human; conditions: compounds obtained by preparative synthesis
Experimental: Determination of IC50 Against DP IV
Substances are screened for inhibition of dipeptidyl peptidase (DP IV) by their ability to inhibit the hydrolysis of the DP IV specific substrate Glycyl-Prolyl-4-Nitroanilide (Gly-Pro-pNA). All compounds are diluted in DMSO and IC50 will be determined with 11 serial dilutions (1:2) starting with an final concentration of 100 μM. The final DMSO concentration in the assay is 5% (v/v). The method was automated using a Tecan Genesis Freedom liquid handler and a Genius Pro (Tecan) microplate reader.
A stock solution of 0.102 M HEPES is prepared. Ionic strength (I=0.32) is adjusted by KCl and pH (pH 7.6) by KOH.
2.16 mM solution of Gly-Pro-pNA in deionized water is prepared.
All samples are dissolved in DMSO preparing a 10 mM stock solution.
DP IV from porcine kidney (pDP IV) or recombinant human DP IV (rhDP IV) is diluted in HEPES buffer to a final activity of approximately 40-50 μU*ml^−1. The DP IV is stored in a cooling rack (4° C.) on the liquid handler.
The assay may becarried out at room temperature using Freedom liquid handler connected with a Genios Pro microplate reader. Each sample is measured in duplicate. Each sample stock solution is prediluted with DMSO in a ratio of 1:5 in a polypropylen 96-well plate. From this predilution 10 serial (1:2) dilutions in DMSO are prepared. 13.5 μl of the 11 DMSO dilutions and DMSO alone are transferred to the measurement microplate (duplicates) and 86.5 μl water, 100 μl HEPES buffer and 50 μl substrate solution are added to each well. The enzymatic reaction is started by addition of 20 μl enzyme solution to each well, and then the microplate is immediately transferred to the microplate reader.
After short mixing (20 s) the release of 4-Nitroanilin (pNA) is monitored at 405 nm for 30 cycles (approx. 18 min).
Post assay calculations are done by the Magellan (Tecan) and Graphit Software. The linear slopes are calculated for each well and averaged for the duplicates. The residue activities are calculated in relation to a sample containing only solvent instead of inhibitor and expressed in %. Residue activities are plotted against the log of inhibitor concentrations and IC50 is calculated by an 4-parameter fitting ranging from 0 to 100%.

[3] = biological target: DP9 (Homo sapiens, UniProt Q86TI2); assay: DP9 assay; format: biochemical; conditions: for Selectivity DP9(IC50)/DPIV(Ki): ratio IC50 DP9 / Ki DP IV
Experimental: (§1) Determination of IC50 values for DPII and DP9 are done similarly as described for DP IV.
For DP9 Gly Pro-AMC is used as substrate in a final concentration of 0.25 mM.

[4] = Caco-2 transport assay; format: in vitro ADME, human; conditions: human, Caco-2, pH 7.5; for Papp A→B: apical to basal; for Papp B→A: basal to apical
Experimental: (§2) The concentration of compounds in the Caco experiments may be determined from their potency to inhibit recombinant human DP IV.
(§3) Reaction is started by addition of 20 μl rhDP IV and release of pNA was monitored at 405 nm. Samples are analyzed in several dilutions (undiluted, 1:10, 1:[…]). Dilutions are done in the Caco assay buffer. Activity measured with Caco-assay buffer alone is set to 100% and inhibitor concentration is calculated from the dilutions resulting in 20 to 80% inhibition according to the equation for competitive inhibition.
(§4) [formula] • I=inhibitor concentration • v0=velocity of the reaction without inhibitor (Caco assay buffer alone) • vi=velocity of the reaction with inhibitor sample • Ki=Ki-value of the compound • DF=dilution factor of the sample Transport Assay
(§5) The human colon adenocarcinome cell line Caco-2 are grown in 6- or 24-transwell microplates (Costar) for 21 days with MEM-alpha containing 10% FBS and 0.5% Gentamycin (Invitrogen). After 21 days of cultivation integrity of the cell layer are assessed by measurement of the transepitelial electrical resistance.
(§6) Transport measurements are carried out in triplicates at a pH of 7.5. For each compound and direction (apical to basal (a-b), basal to apical (b-a)) two separate experiments are done. Samples are collected from the donor and acceptor compartments at the beginning of the experiment and after 60 min (for 6-well plates, Donor at 0 and 120 min, Acceptor at 15, 30, 60 and 120 min).
(§7) Samples are analyzed in several dilutions for their ability to inhibit human recombinant DP IV and compound concentrations may be calculated using the prior determined Ki-value (see above).
(§8) The permeability coefficient Papp is calculated according to the following equation:
(§9) [formula] • VA=Volume of the acceptor compartment • A=Area of the transwell membrane • t=sampling time • cAt=concentration in the acceptor compartment at sampling time • CDO=concentration in the donor compartment at t=0
(§10) Papp-values>1e-5 cm/s are assessed as good permeable, value<1e-6 cm/s as not permeable. Papp-values in between as medium permeable. Compounds where no significant difference were found between a-b and b-a transport are assessed to be passive transported.

[5] = test system: Caco-2 monolayer; assay: Caco-2 transport assay; format: in vitro ADME, human; conditions: assessment of permeability and transport type
Experimental: as §2, §3, §4, §5, §6, §7, §8, §9, §10

[6] = biological target: T1, DP IV; assay: Ki and inhibition type, DP IV; format: biochemical; conditions: compounds obtained by preparative synthesis
Experimental: Measurement of DP IV activities for Ki determination is carried out as described for IC50. For Ki determination samples were analysed in triplicates. 7 serial dilutions of the inhibitor (range calculated from the IC50 determination) in water are analyzed with 4 serial dilutions of the substrate.
Data are analysed by non-linear regression to the inhibitor equations using Graphit software. Ki-value and inhibition type are determined using the inhibitor equation (competitive, partiell competitive, non-competitive) which gives the best fitting results. […]

[7] = biological target: DPII (Homo sapiens, UniProt Q9UHL4); assay: DPII assay; format: biochemical; conditions: for Selectivity DPII(IC50)/DPIV(Ki): ratio IC50 DPII / Ki DP IV; for IC50: sodium acetate buffer pH 5.5, Gly-Pro-AMC 1 mM
Experimental: as §1
For DPII instead of the HEPES buffer a 0.2 M sodium acetate buffer pH 5.5 is used. As substrate Gly-Pro-AMC is used in a final concentration of 1 mM.

[8] = test system: liver cell carcinoma cell line Hep-G2; assay: Cytotoxicity screening and LD50 determination on Hep-G2 (LDH, CytoTox-One); format: cell-based; conditions: 100 μM; for Cytotox 100 μM (%) HEPG2 / Viability 100 μM (%) HEP-G2: 24 h; for Cytotox 100 μM (%) HEPG2: LDH activity in cell culture media, lysed untreated cells = 100%; for Viability 100 μM (%) HEP-G2: LDH of lysed cells, untreated control = 100%; for Observed cytotox: Hep-G2, observation of the cells
Experimental: Cytotoxicity of the compounds may be screened using the liver cell carcinoma cell line Hep-G2.
After 24 h of cultivation in a 96 well plate (50 000 cells/well) compounds (dissolved in DMSO) are added and cytotoxicity and vitality of the cells are analysed after another 24 h of cultivation using the CytoTox-One Homogenoeous membrane toxicity assay (Promega).
Three concentrations (100 μM, 2 μM, 40 nM) of each compound are analysed in triplicates. The final DMSO concentration was 1%.
For cytotoxicity the LDH activity in the cell culture media after 24 h of incubation are analysed. The untreated control is set to 0% cytotoxicity. For the 100% value LDH activity of lysed untreated cells are analysed.
For viability cell culture media are removed from the cells and all cells are lysed using the lysis buffer. LDH activity is determined and untreated control is set to 100% viability.
For determination of LD50 the liver carcinoma cell line HEP-G2 and the neuroblastoma cell line SY5Y may be used. The effect of 8 serial dilutions of the compounds (highest concentration 1 mM) is investigated as described above.
The cytotoxicity of certain example compounds (in each case prepared by preparative synthesis) was screened using Hep-G2 cells. Compounds were tested in concentrations of 100 μM, 2 μM and 40 nM.

[9] = test system: male Sprague Dawley rats; assay: Circadian courses of activity, feeding and drinking behaviour; body weight, food and fluid consumption during chronic administration; format: in vivo, rat; conditions: vs vehicle
Experimental: Example 130b as hydrochloride salt was dissolved in tap water in concentrations of 0.03, 0.1 and 0.3 mg/ml. Assuming a daily fluid intake of approx. 30 ml per animal (animal's weight: approx. 300 g), these concentrations should result in doses of approx. 3, 10 and 30 mg/kg/day. The solutions were prepared freshly every day. During chronic administration, solution offer was limited to 40 ml per day for each animal.
Imipramine was dissolved 0.5% Natrosol and administered once daily i.p. for 8 days (test group TG 11, see below) with a dose of 15 mg/kg/day in a volume of 1 ml/kg.
216 male Sprague Dawley rats. The animals were 6 weeks old at the start of the study. They were housed in groups of 4 animals (“acute animals”) or in single cages (“chronic animals”) at 12 h/12 h light/dark (start of the light phase at 2 a.m.), 20° C., 60% rH. Animals were provided by Elevage Janvier, France.
During the 7 days lasting period of chronic compound administration, animals were kept singly. On the first day they were kept in single Macrolon home cages. On the next day they were transferred to activity monitoring cages and kept there for 3 days. For the following 3 days they returned to their home cages (single housing).
Animals received the test compound chronically via the drinking fluid. The reference compound Imipramine was given i.p. (one administration per day, one hour before the respective tests). Fluid supply was restricted to 40 ml per day for all test groups. On the first day of chronic test compound exposure, animals were kept singly in standard single home cages to enable an individual assessment of test compound intake. On the second day, animals were transferred to infrared monitoring cages for 3 days. Food and fluid offer were the same as in the home cage. Measuring rearing activity near fluid bottles and food grid enabled an assessment of the time structure of food and water (compound) consumption. Behavioural observation started one hour before the beginning of the dark phase (2 p.m.). After 22 hours, body weight, food and fluid consumption were measured. 2 hours later, the next recording started.
Raw data were provided as computer files accompanied by written protocol sheets. As the animals were still adapting to the environment and administration the time courses of the following parameters were calculated only for the last day of registration: • Food and fluid intake (time %) • Number of feeding and […] bouts • Meal pattern parameters reflecting e.g. the duration and recurrence of feeding and drinking bouts • Total distance travelled (cm/min) • Small movements (cm/min) • Distance travelled with rapid locomotion (cm/min) • Distance travelled with slow locomotion (cm/min) • Immobility (time %) • Use of available space (%) • Locomotor stereotypies (score, first hour of the dark phase only) • Rearing (time %) • Number of rearing acts (N) Feeding and Drinking Bouts and Bout-Related Analysis:
On the basis of high-resolution infrared beam recordings, feeding and drinking is identified by means of beam interruption in the upper frame near to the positions of food or water. Feeding or drinking acts are then defined as temporally contingent behavioural pattern separated from each other by intervals not longer than 0.5 seconds. Normally, several acts form a feeding or drinking bout. The intervals within a bout are definitely shorter than between subsequent bouts. A threshold interval can be set to distinguish between intra-bout and inter-bout intervals.
Stereotyped locomotion was assessed by means of statistical comparisons between the observed locomotor sequences (as described by the movement from one of the 4×4 subsquares to another) and a “random walk”. The comparison is performed at 5 different levels:
The coefficient of locomotor stereotypies (SC, in %) at each level has a value of SC=0 when there are no regularities within the movement pattern (random walk). […]

[10] = circadian registration, Imipramine 15 mg/kg/day i.p., Example 130b approx. 3, 10, 30 mg/kg/day
[11] = Imipramine 15 mg/kg/day i.p., Example 130b hydrochloride approx. 3, 10, 30 mg/kg/day via drinking fluid

Chain of DP9 (Q86TI2 whole entry, species assumed): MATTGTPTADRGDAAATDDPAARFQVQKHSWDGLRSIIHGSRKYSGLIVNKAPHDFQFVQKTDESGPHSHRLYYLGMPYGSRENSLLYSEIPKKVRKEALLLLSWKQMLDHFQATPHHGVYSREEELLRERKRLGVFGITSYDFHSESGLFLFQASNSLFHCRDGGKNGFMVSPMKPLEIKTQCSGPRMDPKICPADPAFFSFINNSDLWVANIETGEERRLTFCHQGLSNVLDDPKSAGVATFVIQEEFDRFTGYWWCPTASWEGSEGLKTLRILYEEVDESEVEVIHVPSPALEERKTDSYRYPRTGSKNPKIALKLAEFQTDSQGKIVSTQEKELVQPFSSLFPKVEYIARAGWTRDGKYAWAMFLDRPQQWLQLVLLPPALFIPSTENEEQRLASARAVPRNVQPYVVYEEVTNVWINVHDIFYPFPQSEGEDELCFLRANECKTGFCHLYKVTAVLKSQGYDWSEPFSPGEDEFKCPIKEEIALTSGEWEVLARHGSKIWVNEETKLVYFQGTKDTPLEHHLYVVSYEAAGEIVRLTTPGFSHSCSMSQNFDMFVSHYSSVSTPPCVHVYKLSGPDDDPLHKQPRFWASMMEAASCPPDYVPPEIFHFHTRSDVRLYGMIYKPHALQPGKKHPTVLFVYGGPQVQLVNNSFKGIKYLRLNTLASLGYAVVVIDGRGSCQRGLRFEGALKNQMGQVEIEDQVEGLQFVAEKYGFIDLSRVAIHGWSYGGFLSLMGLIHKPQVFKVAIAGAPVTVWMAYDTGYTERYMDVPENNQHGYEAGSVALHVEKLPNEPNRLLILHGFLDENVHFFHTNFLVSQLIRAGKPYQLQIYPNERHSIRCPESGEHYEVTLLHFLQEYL
T1 sequence (P27487 whole entry): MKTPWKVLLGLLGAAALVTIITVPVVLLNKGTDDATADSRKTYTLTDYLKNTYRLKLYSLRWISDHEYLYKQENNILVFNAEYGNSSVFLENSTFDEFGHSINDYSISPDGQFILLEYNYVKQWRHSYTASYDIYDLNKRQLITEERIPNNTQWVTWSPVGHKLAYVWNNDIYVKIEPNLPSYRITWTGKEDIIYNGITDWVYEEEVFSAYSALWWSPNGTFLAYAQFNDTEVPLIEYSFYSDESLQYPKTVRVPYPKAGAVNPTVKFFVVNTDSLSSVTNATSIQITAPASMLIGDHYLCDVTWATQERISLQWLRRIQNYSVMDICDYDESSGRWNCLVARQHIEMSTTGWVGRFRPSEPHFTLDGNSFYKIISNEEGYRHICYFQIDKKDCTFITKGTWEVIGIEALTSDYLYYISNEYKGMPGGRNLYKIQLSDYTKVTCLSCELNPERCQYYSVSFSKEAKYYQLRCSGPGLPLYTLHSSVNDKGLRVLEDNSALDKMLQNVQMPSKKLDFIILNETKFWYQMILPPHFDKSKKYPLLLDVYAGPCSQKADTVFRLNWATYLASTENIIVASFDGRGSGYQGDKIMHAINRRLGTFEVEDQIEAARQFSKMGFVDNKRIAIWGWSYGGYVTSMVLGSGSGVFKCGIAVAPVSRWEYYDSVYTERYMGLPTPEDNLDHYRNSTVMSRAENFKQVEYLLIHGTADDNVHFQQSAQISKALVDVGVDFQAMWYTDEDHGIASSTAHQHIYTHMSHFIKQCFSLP

For `COc1cccc(Cn2cnc(-c3ccc(Cl)cc3Cl)c2CN)c1` [Example 59b, C-[5-(2,4-dichloro-phenyl)-3-(3-methoxy-benzyl)-3H-imidazol-4-yl]-methylamine], the IC50 [1] was 3.7 µM, the IC50 [2] was 0.221 µM and the “Selectivity DP9(IC50)/DPIV(Ki)” value [3] was 7,974. For the same molecule, the Papp A→B [4] was 49.7 ×10⁻⁶ cm/s, the Papp B→A [4] was 38.3 ×10⁻⁶ cm/s and the Transport [5] was “good, passive”. For the same molecule, the Ki [6] was 0.0153 µM, the “Selectivity DPII(IC50)/DPIV(Ki)” value [7] was 2,542 and the IC50 [7] was 38.9 µM. For the same molecule, the “Cytotox 100 μM (%) HEPG2” value [8] was 1.2%, the “Viability 100 μM (%) HEP-G2” value [8] was 116.3% and the Observed cytotox [8] was 10% spheric.

With `NCc1c(-c2ccc(Cl)cc2Cl)ncn1C(CO)c1ccccc1` (stereo not shown) [Example 126b, 2-[5-aminomethyl-4-(2,4-dichloro-phenyl)-imidazol-1-yl]-2-phenyl-ethanol] the IC50 [2] was 0.145 µM, the IC50 ([3]; Gly Pro-AMC 0.25 mM) was 70.7 µM and the “Selectivity DP9(IC50)/DPIV(Ki)” value [3] was 6,670. For the same molecule, the Papp A→B [4] was 22.5 ×10⁻⁶ cm/s, the Papp B→A [4] was 16.5 ×10⁻⁶ cm/s and the Transport [5] was “good (Papp-values>1e-5 cm/s are assessed as good permeable)”. For the same molecule, the Ki [6] was 0.0106 µM, the “Selectivity DPII(IC50)/DPIV(Ki)” value [7] was 1,887 and the IC50 [7] was 20 µM. The “Cytotox 100 μM (%) HEPG2” value [8] was 5.8%, the “Viability 100 μM (%) HEP-G2” value [8] was 118.8% and the Observed cytotox [8] was 10% spheric.

With `CN(C)CCCN1c2ccccc2CCc2ccccc21` [Imipramine, Imipramine Hydrochloride, reference compound] the time immobile ([9]; circadian registration, Imipramine 15 mg/kg/day i.p.) was “spent more time immobile”, the “horizontal and vertical (locomotor) activity” value [9, 10] was “clearly reduced” and the “time accessing food and water (fluid)” value [9, 10] was “lower amount of time”. The “locomotor stereotypies (stereotypy index)” value ([9]; first hour of the dark phase, Imipramine: level 2, 3 and 4 stereotypies, Example 130b: usage of available space or stereotypy index) was “reduction”, the “body weight (gain)” value [9, 11] was “significantly reduced” and the fluid intake [9, 11] was “significantly reduced”. For the same molecule, the food intake [9, 11] was “significantly reduced”.
